Starred links: 1 amine or outer side, 2 acyl side, 3 side chain; linkers in the order of their positions; H or OH if unused. Positions of bridges follow the written chain, without caps; N, C: chain ends. Non-standard residues stand in square brackets, D forms with d. Residues, ends and D or L forms follow the SMILES beside them. ξ: configuration not given here. Phe(3-CF3) = N[C@@H](Cc1cccc(C(F)(F)F)c1)C(=O)O; Phe(4-CONH2) = NC(=O)c1ccc(C[C@H](N)C(=O)O)cc1; Phe(2,4-F2) = N[C@@H](Cc1ccc(F)cc1F)C(=O)O; X1 = C=CCOc1ccccc1C[C@H](N[*:1])C(=O)[*:2]; Phe(3-CN) = N#Cc1cccc(C[C@H](N)C(=O)O)c1; Phe(3-Cl) = N[C@@H](Cc1cccc(Cl)c1)C(=O)O; Phe(3-Me) = Cc1cccc(C[C@H](N)C(=O)O)c1; Phe(4-Me) = Cc1ccc(C[C@H](N)C(=O)O)cc1; Phe(2-Me) = Cc1ccccc1C[C@H](N)C(=O)O; Ahp(2) = CCCCC[C@H](N)C(=O)O; NMeNle = CCCC[C@H](NC)C(=O)O; Tle = CC(C)(C)[C@H](N)C(=O)O; NHexGly = CCCCCCNCC(=O)O; Nle = CCCC[C@H](N)C(=O)O; ξS = NC(CO)C(=O)O
Target: T1, mouse VISTA (mVISTA) (Mus musculus, UniProt Q9D659)
T1 construct: expressed in transfected cells; host or cells: Human embryonic kidney 293T cells
T1 sequence (Q9D659 33-308): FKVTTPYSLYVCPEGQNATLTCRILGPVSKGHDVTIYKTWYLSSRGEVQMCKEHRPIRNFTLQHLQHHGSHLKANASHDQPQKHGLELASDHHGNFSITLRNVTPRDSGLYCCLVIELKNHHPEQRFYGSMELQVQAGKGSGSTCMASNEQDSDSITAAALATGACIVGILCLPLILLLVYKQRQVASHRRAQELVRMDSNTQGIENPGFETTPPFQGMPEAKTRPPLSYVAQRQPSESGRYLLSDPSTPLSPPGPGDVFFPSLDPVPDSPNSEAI
Experiment: Cell-Based Binding High-Content Assay For mVISTA (HC CBA mVISTA)
Conditions: read-out: HC CBA mVISTA IC50
Summary of the method: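 This high-content binding assay uses HEK293T cells expressing murine VISTA, measuring displacement of 2 nM biotinylated peptide by fluorescent streptavidin imaging. IC50 values come from four-parameter logistic fitting.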

SMILES	IC50 [nM]
CCCCCCN1CC(=O)N[C@@H](Cc2ccc(O)cc2)C(=O)N[C@@H](CC(C)C)C(=O)N[C@@H](CC(N)=O)C(=O)N[C@@H](CCCNC(=N)N)C(=O)N(C)[C@@H](CCCC)C(=O)N[C@@H](CCCCC)C(=O)N2CCC[C@H]2C(=O)N[C@@H](C(C)(C)C)C(=O)N[C@@H](CO)C(=O)N[C@H](C(=O)NCC(N)=O)CSCC(=O)N[C@@H](Cc2ccccc2C)C(=O)N[C@@H](Cc2ccc(O)cc2)C(=O)N[C@@H](CC(=O)O)C1=O [compound 1205] ({CH2CO}-[Phe(2-Me)]YD[NHexGly]YLNR[NMeNle][Ahp(2)]P[Tle]SCG-NH2; thioether N-14)	16.4
C=CCOc1ccccc1C[C@@H]1NC(=O)CSC[C@@H](C(=O)NCC(N)=O)NC(=O)[C@H](CO)NC(=O)[C@H](C(C)(C)C)NC(=O)[C@@H]2CCCN2C(=O)[C@H](CCCCC)NC(=O)[C@H](CCCC)N(C)C(=O)[C@H](CCCNC(=N)N)NC(=O)[C@H](CC(N)=O)NC(=O)[C@H](CC(C)C)NC(=O)[C@H](Cc2ccc(O)cc2)NC(=O)CN(CCCCCC)C(=O)[C@H](CC(=O)O)NC(=O)[C@H](Cc2ccc(O)cc2)NC1=O [compound 1206] ({CH2CO}-[X1]YD[NHexGly]YLNR[NMeNle][Ahp(2)]P[Tle]SCG-NH2; thioether N-14)	28.2
CCCCCCN1CC(=O)N[C@@H](Cc2ccc(O)cc2)C(=O)N[C@@H](CC(C)C)C(=O)N[C@@H](CC(N)=O)C(=O)N[C@@H](CCCNC(=N)N)C(=O)N(C)[C@@H](CCCC)C(=O)N[C@@H](CCCCC)C(=O)N2CCC[C@H]2C(=O)N[C@@H](C(C)(C)C)C(=O)N[C@@H](CO)C(=O)N[C@H](C(=O)NCC(N)=O)CSCC(=O)N[C@@H](Cc2cccc(C(F)(F)F)c2)C(=O)N[C@@H](Cc2ccc(O)cc2)C(=O)N[C@@H](CC(=O)O)C1=O [compound 1207] ({CH2CO}-[Phe(3-CF3)]YD[NHexGly]YLNR[NMeNle][Ahp(2)]P[Tle]SCG-NH2; thioether N-14)	24.5
CCCCCCN1CC(=O)N[C@@H](Cc2ccc(O)cc2)C(=O)N[C@@H](CC(C)C)C(=O)N[C@@H](CC(N)=O)C(=O)N[C@@H](CCCNC(=N)N)C(=O)N(C)[C@@H](CCCC)C(=O)N[C@@H](CCCCC)C(=O)N2CCC[C@H]2C(=O)N[C@@H](C(C)(C)C)C(=O)N[C@@H](CO)C(=O)N[C@H](C(=O)NCC(N)=O)CSCC(=O)N[C@@H](Cc2cccc(Cl)c2)C(=O)N[C@@H](Cc2ccc(O)cc2)C(=O)N[C@@H](CC(=O)O)C1=O [compound 1209] ({CH2CO}-[Phe(3-Cl)]YD[NHexGly]YLNR[NMeNle][Ahp(2)]P[Tle]SCG-NH2; thioether N-14)	33.2
CCCCCCN1CC(=O)N[C@@H](Cc2ccc(O)cc2)C(=O)N[C@@H](CC(C)C)C(=O)N[C@@H](CC(N)=O)C(=O)N[C@@H](CCCNC(=N)N)C(=O)N(C)[C@@H](CCCC)C(=O)N[C@@H](CCCCC)C(=O)N2CCC[C@H]2C(=O)N[C@@H](C(C)(C)C)C(=O)N[C@@H](CO)C(=O)N[C@H](C(=O)NCC(N)=O)CSCC(=O)N[C@@H](Cc2cccc(C#N)c2)C(=O)N[C@@H](Cc2ccc(O)cc2)C(=O)N[C@@H](CC(=O)O)C1=O [compound 1210] ({CH2CO}-[Phe(3-CN)]YD[NHexGly]YLNR[NMeNle][Ahp(2)]P[Tle]SCG-NH2; thioether N-14)	38.3
CCCCCCN1CC(=O)N[C@@H](Cc2ccc(O)cc2)C(=O)N[C@@H](CC(C)C)C(=O)N[C@@H](CC(N)=O)C(=O)N[C@@H](CCCNC(=N)N)C(=O)N(C)[C@@H](CCCC)C(=O)N[C@@H](CCCCC)C(=O)N2CCC[C@H]2C(=O)N[C@@H](C(C)(C)C)C(=O)N[C@@H](CO)C(=O)N[C@H](C(=O)NCC(N)=O)CSCC(=O)N[C@@H](Cc2ccc(C(N)=O)cc2)C(=O)N[C@@H](Cc2ccc(O)cc2)C(=O)N[C@@H](CC(=O)O)C1=O [compound 1212] ({CH2CO}-[Phe(4-CONH2)]YD[NHexGly]YLNR[NMeNle][Ahp(2)]P[Tle]SCG-NH2; thioether N-14)	13.1
CCCCCCN1CC(=O)N[C@@H](Cc2ccc(O)cc2)C(=O)N[C@@H](CC(C)C)C(=O)N[C@@H](CC(N)=O)C(=O)N[C@@H](CCCNC(=N)N)C(=O)N(C)[C@@H](CCCC)C(=O)N[C@@H](CCCCC)C(=O)N2CCC[C@H]2C(=O)N[C@@H](C(C)C)C(=O)N[C@@H](CO)C(=O)N[C@H](C(=O)NCC(N)=O)CSCC(=O)N[C@@H](Cc2ccc(C)cc2)C(=O)N[C@@H](Cc2ccc(O)cc2)C(=O)N[C@@H](CC(=O)O)C1=O [compound 1214] ({CH2CO}-[Phe(4-Me)]YD[NHexGly]YLNR[NMeNle][Ahp(2)]PVSCG-NH2; thioether N-14)	23.3
CCCCCCN1CC(=O)N[C@@H](Cc2ccc(O)cc2)C(=O)N[C@@H](CC(C)C)C(=O)N[C@@H](CC(N)=O)C(=O)N[C@@H](CCCNC(=N)N)C(=O)N(C)[C@@H](CCCC)C(=O)N[C@@H](CCCCC)C(=O)N2CCC[C@H]2C(=O)N[C@@H](C(C)(C)C)C(=O)N[C@@H](CO)C(=O)N[C@H](C(=O)NCC(N)=O)CSCC(=O)N[C@@H](Cc2ccc(C)cc2)C(=O)N[C@@H](Cc2ccc(O)cc2)C(=O)N[C@@H](CC(=O)O)C1=O [compound 1215] ({CH2CO}-[Phe(4-Me)]YD[NHexGly]YLNR[NMeNle][Ahp(2)]P[Tle]SCG-NH2; thioether N-14)	16.7

Results, then the molecule that gave them:

IC50 [nM]	SMILES
27.7	CCCCCCN1CC(=O)N[C@@H](Cc2ccc(O)cc2)C(=O)N[C@@H](CC(C)C)C(=O)N[C@@H](CC(N)=O)C(=O)N[C@@H](CCCNC(=N)N)C(=O)N(C)[C@@H](CCCC)C(=O)N[C@@H](CCCCC)C(=O)N2CCC[C@H]2C(=O)N[C@@H](C(C)C)C(=O)N[C@@H](CO)C(=O)N[C@H](C(=O)NCC(N)=O)CSCC(=O)N[C@@H](Cc2cccc(Cl)c2)C(=O)N[C@@H](Cc2ccc(O)cc2)C(=O)N[C@@H](CC(=O)O)C1=O [compound 1208] ({CH2CO}-[Phe(3-Cl)]YD[NHexGly]YLNR[NMeNle][Ahp(2)]PVSCG-NH2; thioether N-14)
22.1	CCCCCCN1CC(=O)N[C@@H](Cc2ccc(O)cc2)C(=O)N[C@@H](CCCC)C(=O)N[C@@H](CC(N)=O)C(=O)N[C@@H](CCCNC(=N)N)C(=O)N(C)[C@@H](CCCC)C(=O)N[C@@H](CCCCC)C(=O)N2CCC[C@H]2C(=O)N[C@@H](C(C)C)C(=O)N[C@@H](CC(=O)O)C(=O)N[C@H](C(=O)NCC(=O)O)CSCC(=O)N[C@@H](Cc2cccc(C)c2)C(=O)N[C@@H](Cc2ccc(O)cc2)C(=O)N[C@@H](CC(=O)O)C1=O [compound 1211] ({CH2CO}-[Phe(3-Me)]YD[NHexGly]Y[Nle]NR[NMeNle][Ahp(2)]PVDCG-OH; thioether N-14)
27.1	CCCCCCN1CC(=O)N[C@@H](Cc2ccc(O)cc2)C(=O)N[C@@H](CC(C)C)C(=O)N[C@@H](CC(N)=O)C(=O)N[C@@H](CCCNC(=N)N)C(=O)N(C)[C@@H](CCCC)C(=O)N[C@@H](CCCCC)C(=O)N2CCC[C@H]2C(=O)N[C@@H](C(C)C)C(=O)N[C@@H](CO)C(=O)N[C@H](C(=O)NCC(N)=O)CSCC(=O)N[C@@H](Cc2ccc(C(N)=O)cc2)C(=O)N[C@@H](Cc2ccc(O)cc2)C(=O)N[C@@H](CC(=O)O)C1=O [compound 1213] ({CH2CO}-[Phe(4-CONH2)]YD[NHexGly]YLNR[NMeNle][Ahp(2)]PVSCG-NH2; thioether N-14)
12.9	CCCCCCN1CC(=O)N[C@@H](Cc2ccc(O)cc2)C(=O)N[C@@H](CCCCC)C(=O)N[C@@H](CC(N)=O)C(=O)N[C@@H](CCCNC(=N)N)C(=O)N(C)[C@@H](CCCC)C(=O)N[C@@H](CCCCC)C(=O)N2CCC[C@H]2C(=O)N[C@@H](C(C)C)C(=O)N[C@@H](CC(=O)O)C(=O)N[C@H](C(=O)NCC(=O)O)CSCC(=O)N[C@@H](Cc2ccc(F)cc2F)C(=O)N[C@@H](Cc2ccc(F)cc2F)C(=O)N[C@@H](CC(=O)O)C1=O [compound 1216] ({CH2CO}-[Phe(2,4-F2)][Phe(2,4-F2)]D[NHexGly]Y[Ahp(2)]NR[NMeNle][Ahp(2)]PVDCG-OH; thioether N-14)
16.2	CCCCCCN1CC(=O)N[C@@H](Cc2ccc(O)cc2)C(=O)N[C@@H](CCCCC)C(=O)N[C@@H](CC(N)=O)C(=O)N[C@@H](CCCNC(=N)N)C(=O)N(C)[C@@H](CCCC)C(=O)N[C@@H](CCCCC)C(=O)N2CCC[C@H]2C(=O)N[C@@H](C(C)C)C(=O)N[C@@H](C(C)C)C(=O)N[C@H](C(=O)NCC(=O)O)CSCC(=O)N[C@@H](Cc2ccc(F)cc2F)C(=O)N[C@@H](Cc2ccc(F)cc2F)C(=O)N[C@@H](CC(=O)O)C1=O [compound 1217] ({CH2CO}-[Phe(2,4-F2)][Phe(2,4-F2)]D[NHexGly]Y[Ahp(2)]NR[NMeNle][Ahp(2)]PVVCG-OH; thioether N-14)
23.6	CCCCCCN1CC(=O)N[C@@H](Cc2ccc(O)cc2)C(=O)N[C@@H](CCCCC)C(=O)N[C@@H](CC(N)=O)C(=O)N[C@@H](CCCNC(=N)N)C(=O)N(C)[C@@H](CCCC)C(=O)N[C@@H](CCCCC)C(=O)N2CCC[C@H]2C(=O)N[C@@H](C(C)C)C(=O)N[C@@H](CC(=O)O)C(=O)N[C@H](C(=O)NC(CO)C(=O)O)CSCC(=O)N[C@@H](Cc2ccc(F)cc2F)C(=O)N[C@@H](Cc2ccc(F)cc2F)C(=O)N[C@@H](CC(=O)O)C1=O (stereo partly drawn) [compound 1218] ({CH2CO}-[Phe(2,4-F2)][Phe(2,4-F2)]D[NHexGly]Y[Ahp(2)]NR[NMeNle][Ahp(2)]PVDC[ξS]-OH; thioether N-14)
33.9	CCCCCCN1CC(=O)N[C@@H](Cc2ccc(O)cc2)C(=O)N[C@@H](CCCCC)C(=O)N[C@@H](CC(N)=O)C(=O)N[C@@H](CCCNC(=N)N)C(=O)N(C)[C@@H](CCCC)C(=O)N[C@@H](CCCCC)C(=O)N2CCC[C@H]2C(=O)N[C@@H](C(C)C)C(=O)N[C@@H](C(C)C)C(=O)N[C@H](C(=O)NC(CO)C(=O)O)CSCC(=O)N[C@@H](Cc2ccc(F)cc2F)C(=O)N[C@@H](Cc2ccc(F)cc2F)C(=O)N[C@@H](CC(=O)O)C1=O (stereo partly drawn) [compound 1219] ({CH2CO}-[Phe(2,4-F2)][Phe(2,4-F2)]D[NHexGly]Y[Ahp(2)]NR[NMeNle][Ahp(2)]PVVC[ξS]-OH; thioether N-14)

From patent publication US20240218022A1, “ANTI-VISTA MACROCYCLIC PEPTIDES AND COMPOSITIONS” (BRISTOL-MYERS SQUIBB COMPANY, priority 2022, published 2024)
